Patent publication US20050209248A1, “Plymorphic forms of phenyl oxazolidinone derivatives” (priority 2002, published 2005)
In brackets after ≈: the same amount, converted by molar mass. Where two headings read alike, the source gives them in different places.

Legend:
[1] = system: Mycobacterium avium intracellulare; assay: Agar dilution method (Middlebrook 7H10); type: cell-based; conditions: 504 h, 21 days at 37° C.; for MIC: read-out: G.M. (MIC)
[2] = system: MRSE 879; assay: Broth MIC; type: cell-based; conditions: for MIC: Staphylococcus epidermidis, read-out: broth MIC
From the text: (§1) The change in MIC in broth and on sintered glass adherent bacteria is presented in Graph E. [drawing]

[3] = system: Prevotella bivia; assay: Agar dilution MIC; type: cell-based; conditions: Prevotella bivia isolate
[4] = in vivo; cited from earlier work
[5] = system: Mycobacterium tuberculosis; assay: Agar dilution method for M. tuberculosis (Middlebrook 7H10); type: cell-based; conditions: 504 h; for MIC90 / MIC: 21 days at 37° C.; for MIC: read-out: G.M. (MIC)
[6] = system: MRSE 879 adherent bacteria; assay: Sintered glass adherent bacteria model; type: cell-based; conditions: MRSE 879, sintered glass adherent
From the text: (§2) Inhibition of slime production • 2. Activity against glass-adherent bacteria.
as §1

[7] = system: Porphyromonas asaccharolytica; assay: Agar dilution MIC; type: cell-based; conditions: Porphyromonas asaccharolytica isolate
[8] = system: Fusobacterium necrogenes; assay: Agar dilution MIC; type: cell-based; conditions: Fusobacterium necrogenes isolate
[9] = system: Porphyromonas gingivalis; assay: Agar dilution MIC; type: cell-based; conditions: Porphyromonas gingivalis isolate
[10] = system: anaerobic bacteria; assay: NCCLS agar dilution MIC, anaerobic bacteria (summary); type: cell-based; conditions: anaerobes, Wilkins Chalgren Agar, 48 hour anaerobic incubation; for MIC Range: in µg/mL
[11] = system: Clostridium perfringens; type: cell-based
[12] = system: MRSA 1029/99 and MRSE 879/247; assay: Inhibition of biofilm (slime) production, safranin staining; type: cell-based; conditions: trypticase soy broth with 2% glucose, overnight 37° C., Graphs A to D
Procedure: as §2
To study the effect of polymorphic ‘Form A’ on the inhibition of biofilm production, the following study was carried out as set forth in Blake et al. J. Clinical Microbiol. 2001; 39:544-550; and Polonio et al. Chemother. 2001; 45:3262-3266. […] Bacterial suspensions (in triplicate) were exposed a doubling dilution of antibiotics and incubated overnight at 37° C. with constant shaking (100 rpm). The next day, after aspirating the medium, the biofilm was stained with safranin (0.1%) for 1 hour at room temperature, washed with distilled water, tapped dry and stain-extracted into 200 μl of 0.2M NaoH and the OD measured at 544 nm.

Molecule	MIC50 [1] [µg/mL]	MIC90 [1] [µg/mL]	MIC [1] [µg/mL]	MIC [3] [µg/mL]	MIC50 [5] [µg/mL]	MIC90 [5] [µg/mL]	MIC [5] [µg/mL]	MIC [7] [µg/mL]	MIC [8] [µg/mL]	MIC [9] [µg/mL]	Geometric Mean (MIC) [10] [µg/mL]	MIC50 [10] [µg/mL]	MIC90 [10] [µg/mL]	MIC Range [10]	further results
CC(=O)NC[C@H]1CN(c2ccc(N3CCOCC3)c(F)c2)C(=O)O1 [Linezolid]	16 (≈ 47.4 µM)	64 (≈ 190 µM)	20.6 (≈ 61 µM)	1 (≈ 2.96 µM)	8 (≈ 23.7 µM)	64 (≈ 190 µM)	8 (≈ 23.7 µM)	1 (≈ 2.96 µM)	0.5 (≈ 1.48 µM)	1 (≈ 2.96 µM)	1.13	1 (≈ 2.96 µM)	4 (≈ 11.9 µM)	0.25-4	MIC ([2]; MRSE 879, broth): 2 µg/mL (≈ 5.93 µM); Cmax [4]: 12000 to 16000 ng/mL; concentration which would kill adherent bacteria [6]: 32 µg/mL
CN[C@H](CC(C)C)C(=O)N[C@H]1C(=O)N[C@@H](CC(N)=O)C(=O)N[C@H]2C(=O)N[C@H]3C(=O)N[C@H](C(=O)N[C@H](C(=O)O)c4cc(O)cc(O)c4-c4cc3ccc4O)[C@H](O)c3ccc(c(Cl)c3)Oc3cc2cc(c3O[C@@H]2O[C@H](CO)[C@@H](O)[C@H](O)[C@H]2O[C@H]2C[C@](C)(N)[C@H](O)[C@H](C)O2)Oc2ccc(cc2Cl)[C@H]1O [Vancomycin]	–	–	–	> 16	–	–	–	2 (≈ 1.38 µM)	> 16	8 (≈ 5.52 µM)	9.31	32 (≈ 22.1 µM)	32 (≈ 22.1 µM)	0.5-32	MIC ([2]; MRSE): 1 µg/mL (≈ 0.69 µM); MIC [11]: 0.5 µg/mL (≈ 0.345 µM); concentration which would kill adherent bacteria [6]: 8 µg/mL
CC(=O)NC[C@H]1CN(c2ccc(N3CCN(Cc4ccc([N+](=O)[O-])o4)CC3)c(F)c2)C(=O)O1.Cl [Polymorphic ‘Form A’]	8	32	8.52	0.125	4	64	5.44	≤ 0.008	≤ 0.008	≤ 0.008	0.037	0.032	0.25	0.004-1	MIC ([2]; MRSE 879, broth): 0.5 µg/mL; concentration which would kill adherent bacteria [6]: 2 µg/mL; Inhibition of Biofilm formation [12]: occurs at a lower concentration
C[C@@H]1CN(c2c(F)c(N)c3c(=O)c(C(=O)O)cn(C4CC4)c3c2F)C[C@H](C)N1 [Sparfloxacin]	4 (≈ 10.2 µM)	8 (≈ 20.4 µM)	3.53 (≈ 8.99 µM)	–	1 (≈ 2.55 µM)	2 (≈ 5.1 µM)	0.53 (≈ 1.35 µM)	–	–	–	–	–	–	–	–
Teicoplanin	–	–	–	1	–	–	–	0.125	> 16	≤ 0.06	2.04	2	32	0.03-32	–
Synercid	–	–	–	2	–	–	–	≤ 0.125	0.25	0.25	1.61	1	16	0.062-16	broth MIC ([2]; MRSE 879, broth): 0.5 µg/mL; concentration which would kill adherent bacteria [6]: 2 µg/mL
C[C@@H](O)[C@H]1C(=O)N2C(C(=O)O)=C(SCCN=CN)C[C@H]12 [Imipenem]	–	–	–	0.03 (≈ 0.1 µM)	–	–	–	0.03 (≈ 0.1 µM)	0.25 (≈ 0.835 µM)	≤ 0.016	0.084	0.064 (≈ 0.214 µM)	1 (≈ 3.34 µM)	0.008-4	–
NNC(=O)c1ccncc1 [Isoniazid]	32 (≈ 233 µM)	64 (≈ 467 µM)	18.1 (≈ 132 µM)	–	8 (≈ 58.3 µM)	64 (≈ 467 µM)	3.17 (≈ 23.1 µM)	–	–	–	–	–	–	–	–
CC1(C)S[C@@H]2[C@H](NC(=O)[C@H](N)c3ccc(O)cc3)C(=O)N2[C@H]1C(=O)O [Amox]	–	–	–	–	–	–	–	–	0.5 (≈ 1.37 µM)	–	1.37	1 (≈ 2.74 µM)	256 (≈ 701 µM)	0.062-256	–
Cc1ncc([N+](=O)[O-])n1CCO [Metronidazole]	–	–	–	1 (≈ 5.84 µM)	–	–	–	–	0.25 (≈ 1.46 µM)	–	0.48	0.5 (≈ 2.92 µM)	2 (≈ 11.7 µM)	0.062-32	–
CCC[C@@H]1C[C@@H](C(=O)N[C@@H]([C@H]2O[C@H](SC)[C@H](O)[C@@H](O)[C@H]2O)[C@H](C)Cl)N(C)C1 [Clindamycin]	–	–	–	> 32	–	–	–	≤ 0.016	0.03 (≈ 0.0706 µM)	≤ 0.016	0.208	0.125 (≈ 0.294 µM)	8 (≈ 18.8 µM)	0.008-64	–
COc1c(N2C[C@@H]3CCCN[C@@H]3C2)c(F)cc2c(=O)c(C(=O)O)cn(C3CC3)c12 [Moxifloxacin]	–	–	–	–	–	–	–	0.5 (≈ 1.25 µM)	1 (≈ 2.49 µM)	0.03 (≈ 0.0747 µM)	–	–	–	–	–
COc1c(N2CCNC(C)C2)c(F)cc2c(=O)c(C(=O)O)cn(C3CC3)c12 (stereo not shown) [Gatifloxacin]	–	–	–	2 (≈ 5.33 µM)	–	–	–	0.25 (≈ 0.666 µM)	0.5 (≈ 1.33 µM)	0.06 (≈ 0.16 µM)	0.659	0.5 (≈ 1.33 µM)	2 (≈ 5.33 µM)	0.06-32	–
CC[C@H]1OC(=O)[C@H](C)[C@@H](O[C@H]2C[C@@](C)(OC)[C@@H](O)[C@H](C)O2)[C@H](C)[C@@H](O[C@@H]2O[C@H](C)C[C@H](N(C)C)[C@H]2O)[C@](C)(OC)C[C@@H](C)C(=O)[C@H](C)[C@@H](O)[C@]1(C)O [Clarithromycin]	1 (≈ 1.34 µM)	4 (≈ 5.35 µM)	1.55 (≈ 2.08 µM)	–	16 (≈ 21.4 µM)	32 (≈ 42.8 µM)	12.7 (≈ 17 µM)	–	–	–	–	–	–	–	–
CO[C@H]1/C=C/O[C@@]2(C)Oc3c(C)c(O)c4c(O)c(c(/C=N/N5CCN(C)CC5)c(O)c4c3C2=O)NC(=O)/C(C)=C\C=C\[C@H](C)[C@H](O)[C@@H](C)[C@@H](O)[C@@H](C)[C@H](OC(C)=O)[C@@H]1C [Rifampicin]	1 (≈ 1.22 µM)	32 (≈ 38.9 µM)	2 (≈ 2.43 µM)	–	64 (≈ 77.8 µM)	64 (≈ 77.8 µM)	6.35 (≈ 7.72 µM)	–	–	–	–	–	–	–	–
Amox + clav	–	–	–	≤ 0.125	–	–	–	≤ 0.125	0.5	≤ 0.125	0.423	0.25	8	0.062-32	–
